In US10035778B2, “Meta-azacyclic amino benzoic acid derivatives as pan integrin antagonists” (Saint Louis University, priority 2015, dated 2018):

Legend:
Type in all cases: binding
[1] = target: Recombinant human integrin αvβ6 (Homo sapiens (Human), UniProt P06756+P18564); test: Solid Phase Receptor Assay (SPRA) for αvβ6 function; conditions: LAP-coated plate
Method: 5. Solid Phase Receptor Assay (SPRA) for αvβ6 Function
Recombinant human LAP (R&D Systems, 246-LP) diluted to 0.25 μg/mL in TBS+ buffer (25 mM Tris pH 7.4, 137 mM NaCl, 2.7 mM KCl, 1 mM CaCl2, 1 mM MgCl2, 1 mM MnCl2) was added to wells (50 μL/well) of a 96-well half-well transparent microtiter plate (Greiner 675061) and incubated overnight at 4° C. Wells were washed 3 times with 150 μL TBS+, and 150 μL of blocking buffer (TBS+ with 1% bovine serum albumin, Sigma A7906) were added. The plate was incubated for 1 hr at 37° C., and then washed 3× with TBS+ buffer. Recombinant human integrin αvβ6 (R&D Systems, 3817-AV) was diluted to 0.1 μg/mL in TBS+/0.1% bovine serum albumin. Compounds were diluted 1:100 into the integrin solution and then 50 μL added to empty wells of the washed LAP-coated plate according to a standard template with each sample repeated in triplicate. After incubation for two hours at room temperature, the plate was washed 3× with 150 μL of TBS+ buffer. To each well, 50 μL of biotinylated anti-αv antibody (R&D Systems, BAF1219) at 0.5 μg/mL in TBS+/0.1% BSA were added and the plate was covered and incubated for 1 hr at room temperature. After washing the plate 3× with 150 μL of TBS+ buffer, 50 μL of streptavidin-conjugated horseradish peroxidase (R&D Systems, DY998) diluted in TBS+ blocking buffer were added to the wells and the plate incubated for 20 min at room temperature. The plate was washed 3× with TBS+ buffer followed by 50 μL of TMB substrate (Sigma T4444) added to each well and the plate incubated for 20 min at room temperature. Plates were read by colorimetric detection at 650 nm wavelength using a Tecan Safire II plate reader. Concentration-response curves were constructed by non-linear regression (best fit) analysis, and IC50 values were calculated for each compound.

[2] = target: Recombinant human integrin αvβ8 (Homo sapiens (Human), UniProt P06756+P26012); test: Solid Phase Receptor Assay (SPRA) for αvβ8 function; conditions: LAP-coated plate
Method: 6. Solid Phase Receptor Assay (SPRA) for αvβ8 Function
Recombinant human LAP protein (R&D Systems, Inc, 246-LP) diluted to 0.5 μg/mL in TBS+ buffer (25 mM Tris pH 7.4, 137 mM NaCl, 2.7 mM KCl, 1 mM CaCl2, 1 mM MgCl2, 1 mM MnCl2) was added to wells (50 μl/well) of a 96-well half-well transparent microtiter plate (Greiner 675061), and incubated overnight at 4° C. Wells were washed 3 times with 150 μL TBS+ and 150 μL of blocking buffer (TBS+ with 1% bovine serum albumin, Sigma A7906) were added. The plate was incubated for 1 hr at 37° C. and then washed 3× with TBS+. Recombinant human integrin αvβ8 (R&D Systems, 4135-AV) was diluted to 0.1 μg/mL in TBS+/0.1% bovine serum albumin. Compounds were diluted 1:100 into the integrin solution and 50 μL added to empty wells of the washed LAP-coated plate according to a standard template with each sample repeated in triplicate. After incubation for two hours at room temperature, the plate was washed 3× with 150 μL of TBS+. To each well, 50 μL of biotinylated anti-αv antibody (R&D Systems, BAF1219) at 1 μg/mL in TBS+/0.1% BSA were added and the plate was covered and incubated for 1 hr at room temperature. After washing the plate 3× with 150 μL of TBS+ buffer, 50 μL of streptavidin-conjugated horseradish peroxidase (R&D Systems, DY998) diluted in TBS+ blocking buffer were added to the wells and the plate incubated for 20 min at room temperature. The plate was washed 3× with TBS+ followed by 50 μL of TMB substrate (Sigma T4444) added to each well and the plate incubated for 20 min at room temperature. Plates were read by colorimetric detection at 650 nm wavelength using a Tecan Safire II plate reader. Concentration-response curves were constructed by non-linear regression (best fit) analysis, and IC50 values were calculated for each compound.

[3] = target: Recombinant human integrin αvβ3 (Homo sapiens (Human), UniProt P05106+P06756); test: Solid Phase Receptor Assay (SPRA) for αvβ3 function; conditions: vitronectin-coated plate
Method: 3. Solid Phase Receptor Assay (SPRA) for αvβ3 Function
Recombinant human vitronectin (R& D Systems, 2308-VN) diluted to 1 μg/mL in TBS+ buffer (25 mM Tris pH 7.4, 137 mM NaCl, 2.7 mM KCl, 1 mM CaCl2, 1 mM MgCl2, 1 mM MnCl2) was added to wells (50 μL/well) of a 96-well half-well transparent microtiter plate (Greiner 675061) and incubated overnight at 4° C. Wells were washed 3 times with 150 μL TBS+ and 150 μL of blocking buffer (TBS+ with 1% bovine serum albumin, Sigma A7906) were added. The plate was incubated for 1 hr at 37° C. and then washed 3× with TBS+ buffer. Recombinant human integrin αvβ3 (R&D Systems, 3050-AV) was diluted to 1 μg/mL in TBS+/0.1% bovine serum albumin. Compounds were diluted 1:100 into the integrin solution and then 50 μL added to empty wells of the washed vitronectin-coated plate according to a standard template with each sample repeated in triplicate. After incubation for two hours at room temperature, the plate was washed 3× with 150 μL of TBS+ buffer. To each well, 50 μL of biotinylated anti-αv antibody (R&D Systems, BAF1219) at 0.5 μg/mL in TBS+/0.1% BSA were added and the plate covered and incubated for 1 hr at room temperature. After washing the plate 3× with 150 μL of TBS+ buffer, 50 μL of streptavidin-conjugated horseradish peroxidase (R&D Systems, DY998) diluted in TBS+ blocking buffer were added to the wells and the plate incubated for 20 min at room temperature. The plate was washed 3× with TBS+ buffer followed by 50 μL of TMB substrate (Sigma, T4444) added to each well and the plate was incubated for 20 min at room temperature. Plates were read by colorimetric detection at 650 nm wavelength using a Tecan Safire II plate reader. Concentration-response curves were constructed by non-linear regression (best fit) analysis, and IC50 values were calculated for each compound.

Sequence of Recombinant human integrin αvβ3 (P06756 31-992): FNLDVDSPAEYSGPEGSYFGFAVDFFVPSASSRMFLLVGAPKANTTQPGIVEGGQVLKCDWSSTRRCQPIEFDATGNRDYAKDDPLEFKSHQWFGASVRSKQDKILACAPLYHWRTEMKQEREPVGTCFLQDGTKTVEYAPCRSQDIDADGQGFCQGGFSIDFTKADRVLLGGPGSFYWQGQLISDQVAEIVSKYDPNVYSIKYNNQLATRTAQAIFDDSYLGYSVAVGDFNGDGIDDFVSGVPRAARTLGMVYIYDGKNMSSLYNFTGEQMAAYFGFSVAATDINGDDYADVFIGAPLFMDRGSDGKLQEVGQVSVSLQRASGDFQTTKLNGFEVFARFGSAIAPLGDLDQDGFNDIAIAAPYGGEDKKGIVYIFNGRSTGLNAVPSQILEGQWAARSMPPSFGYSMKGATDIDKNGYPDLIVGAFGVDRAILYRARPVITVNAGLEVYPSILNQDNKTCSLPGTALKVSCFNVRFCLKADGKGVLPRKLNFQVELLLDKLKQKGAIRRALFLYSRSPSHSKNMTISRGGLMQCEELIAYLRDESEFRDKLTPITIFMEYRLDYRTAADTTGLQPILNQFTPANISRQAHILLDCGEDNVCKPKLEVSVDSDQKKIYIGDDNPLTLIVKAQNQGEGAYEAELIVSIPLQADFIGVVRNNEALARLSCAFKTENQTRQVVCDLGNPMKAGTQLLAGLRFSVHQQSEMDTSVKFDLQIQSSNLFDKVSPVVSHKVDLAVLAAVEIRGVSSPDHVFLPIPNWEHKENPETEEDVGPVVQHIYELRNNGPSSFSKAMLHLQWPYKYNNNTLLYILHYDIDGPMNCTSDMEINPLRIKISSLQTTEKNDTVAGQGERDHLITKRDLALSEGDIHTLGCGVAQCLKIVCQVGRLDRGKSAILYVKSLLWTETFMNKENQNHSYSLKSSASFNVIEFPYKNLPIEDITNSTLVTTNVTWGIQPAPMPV
Sequence of Recombinant human integrin αvβ3 (P05106 27-718): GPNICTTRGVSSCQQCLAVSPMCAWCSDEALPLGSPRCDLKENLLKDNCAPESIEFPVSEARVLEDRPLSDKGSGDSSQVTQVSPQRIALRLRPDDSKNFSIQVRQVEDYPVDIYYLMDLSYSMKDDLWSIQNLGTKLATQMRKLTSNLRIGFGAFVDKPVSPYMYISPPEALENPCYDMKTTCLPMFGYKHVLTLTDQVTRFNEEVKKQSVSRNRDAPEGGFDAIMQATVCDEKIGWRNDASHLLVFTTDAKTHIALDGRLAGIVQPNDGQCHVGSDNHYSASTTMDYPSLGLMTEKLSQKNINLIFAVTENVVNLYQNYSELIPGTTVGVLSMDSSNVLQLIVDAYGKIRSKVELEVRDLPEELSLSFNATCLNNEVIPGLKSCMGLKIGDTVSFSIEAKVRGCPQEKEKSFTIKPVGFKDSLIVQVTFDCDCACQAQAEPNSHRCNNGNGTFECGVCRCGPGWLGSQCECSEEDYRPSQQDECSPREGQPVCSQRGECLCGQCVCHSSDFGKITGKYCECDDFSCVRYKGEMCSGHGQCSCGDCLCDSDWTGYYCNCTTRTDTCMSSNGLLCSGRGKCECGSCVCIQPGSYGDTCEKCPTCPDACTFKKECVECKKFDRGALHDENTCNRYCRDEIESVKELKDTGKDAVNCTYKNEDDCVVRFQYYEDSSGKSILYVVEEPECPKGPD
Sequence of Recombinant human integrin αvβ6 (P06756 31-992): as the sequence (P06756 31-992) above
Sequence of Recombinant human integrin αvβ6 (P18564 22-707): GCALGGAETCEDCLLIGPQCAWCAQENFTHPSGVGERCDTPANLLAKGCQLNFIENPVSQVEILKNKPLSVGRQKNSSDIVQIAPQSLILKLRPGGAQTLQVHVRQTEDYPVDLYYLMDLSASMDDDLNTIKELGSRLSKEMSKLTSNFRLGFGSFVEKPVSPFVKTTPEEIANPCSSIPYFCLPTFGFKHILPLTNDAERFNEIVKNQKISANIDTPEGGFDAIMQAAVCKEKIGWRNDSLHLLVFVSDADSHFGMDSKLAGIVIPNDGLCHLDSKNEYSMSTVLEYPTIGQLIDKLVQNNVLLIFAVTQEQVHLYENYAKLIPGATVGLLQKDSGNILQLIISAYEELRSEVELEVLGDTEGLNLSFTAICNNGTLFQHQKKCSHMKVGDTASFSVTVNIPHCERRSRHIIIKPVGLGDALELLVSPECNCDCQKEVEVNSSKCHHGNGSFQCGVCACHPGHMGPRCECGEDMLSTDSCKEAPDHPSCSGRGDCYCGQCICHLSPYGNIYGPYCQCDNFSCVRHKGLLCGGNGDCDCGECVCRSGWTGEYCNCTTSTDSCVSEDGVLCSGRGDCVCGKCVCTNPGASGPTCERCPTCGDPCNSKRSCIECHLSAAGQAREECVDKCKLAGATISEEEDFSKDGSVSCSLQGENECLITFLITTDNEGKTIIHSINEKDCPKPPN
Sequence of Recombinant human integrin αvβ8 (P06756 31-992): as the sequence (P06756 31-992) above
Sequence of Recombinant human integrin αvβ8 (P26012 43-684): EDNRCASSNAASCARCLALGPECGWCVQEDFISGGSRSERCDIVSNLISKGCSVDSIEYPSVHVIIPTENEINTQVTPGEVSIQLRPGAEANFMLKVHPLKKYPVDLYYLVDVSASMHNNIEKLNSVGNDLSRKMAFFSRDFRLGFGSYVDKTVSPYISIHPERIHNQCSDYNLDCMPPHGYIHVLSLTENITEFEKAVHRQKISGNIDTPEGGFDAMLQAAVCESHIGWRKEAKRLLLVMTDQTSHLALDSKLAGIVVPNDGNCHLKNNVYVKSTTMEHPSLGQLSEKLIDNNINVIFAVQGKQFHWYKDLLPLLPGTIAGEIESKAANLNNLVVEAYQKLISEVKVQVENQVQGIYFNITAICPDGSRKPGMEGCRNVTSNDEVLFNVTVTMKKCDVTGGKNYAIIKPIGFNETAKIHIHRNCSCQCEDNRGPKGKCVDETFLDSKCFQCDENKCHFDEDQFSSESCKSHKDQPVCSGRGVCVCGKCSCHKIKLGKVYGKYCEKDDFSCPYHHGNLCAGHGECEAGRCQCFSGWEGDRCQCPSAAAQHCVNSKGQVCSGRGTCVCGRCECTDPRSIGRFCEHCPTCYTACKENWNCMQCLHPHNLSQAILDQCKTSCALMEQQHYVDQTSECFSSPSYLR

IC50 [1] [nM] | IC50 [2] [nM] | IC50 [3] [nM] | Compound
12 | 7 | 11 | O=C(O)CC(NC(=O)CNC(=O)c1cc(O)cc(NC2=NCC(O)CN2)c1)c1cc(Br)cc(Br)c1O (stereo not drawn) [Example C7, reference compound]
2 ± 1 | 3 ± 2 | 5 ± 2 | O=C(O)C[C@H](NC(=O)CNC(=O)c1cc(O)cc(NC2=NCC(O)CN2)c1)c1cc(Cl)cc(Br)c1O (stereo partly drawn) [Example C1, reference compound]
> 1000 | 5 | 3 | O=C(O)C[C@H](NC(=O)CNC(=O)c1cc(O)cc(NC2=NCC(O)CN2)c1)c1ccccc1 (stereo partly drawn) [Example C2, reference compound]
1 | 9 ± 6 | 6 | Cc1ccc(O)c(C(CC(=O)O)NC(=O)CNC(=O)c2cc(O)cc(NC3=NCC(O)CN3)c2)c1 (stereo not drawn) [Example C6, reference compound]
2 | 18 | 5 | Cc1ccc(O)c(C(CC(=O)O)NC(=O)CNC(=O)c2cccc(NC(=N)N)c2)c1 (stereo not drawn) [Example C8, reference compound]
3 | 5 | 6 | Cc1cc(Cl)cc([C@@H](CC(=O)O)NC(=O)CNC(=O)c2cc(O)cc(NC3=NCC(O)CN3)c2)c1O (stereo partly drawn) [Example C10, reference compound]
1 | 2 | 2 | O=C(O)CC(NC(=O)CNC(=O)c1cc(O)cc(NC2=NCC(O)CN2)c1)c1cc(Cl)cc(Cl)c1O (stereo not drawn) [Example C3, reference compound]

The next lines start with the compound.

Compound | IC50 [1] [nM] | IC50 [2] [nM] | IC50 [3] [nM]
O=C(O)C[C@H](NC(=O)CNC(=O)c1cncc(NC2=NCC(O)CN2)c1)c1cc(Cl)cc(C(F)(F)F)c1 (stereo partly drawn) [Example 7] | 0.3 | 0.4 | 3
O=C(O)C[C@H](NC(=O)CNC(=O)c1cc(O)cc(NC2=NCC(O)CN2)c1)c1cc(Cl)cc(Cl)c1 (stereo partly drawn) [Example 15, (3S)-3-[3,5-dichloro-phenyl)-3-(2-(3-hydroxy-5-((5-hydroxy-1,4,5,6-tetrahydropyrimidin-2-yl)amino)benzamido)acetamido)propanoic acid] | 0.6 | 1.1 ± 0.3 | 4
Cc1cc(Br)cc([C@H](CC(=O)O)NC(=O)CNC(=O)c2cc(O)cc(NC3=NCC(O)CN3)c2)c1 (stereo partly drawn) [Example 11, (3S)-3-[3-bromo-5-methyl-phenyl)-3-(2-(3-hydroxy-5-((5-hydroxy-1,4,5,6-tetrahydropyrimidin-2-yl)amino)benzamido)acetamido)propanoic acid] | 0.5 | 0.6 | 2
O=C(O)C[C@H](NC(=O)CNC(=O)c1cc(O)cc(NC2=NCC(O)CN2)c1)c1cc(Cl)cc(C(F)F)c1 (stereo partly drawn) [Example 3, (3S)-3-[3-chloro-5-(difluoromethyl)phenyl)-3-(2-(3-hydroxy-5-((5-hydroxy-1,4,5,6-tetrahydropyrimidin-2-yl)amino)benzamido)acetamido]propanoic acid] | 0.4 | 0.3 | 1
O=C(O)C[C@H](NC(=O)CNC(=O)c1cncc(NC2=NCC(O)CN2)c1)c1cc(Br)cc(Br)c1 (stereo partly drawn) [Example 14, (3S)-3-(3,5-dibromophenyl)-3-[[2-[[5-[(5-hydroxy-1,4,5,6-tetrahydropyrimidin-2-yl)amino]pyridine-3-carbonyl]amino]acetyl]amino]propanoic acid] | 0.2 | 0.2 | 0.3
O=C(O)C[C@H](NC(=O)CNC(=O)c1cc(O)cc(NC2=NCC(O)CN2)c1)c1cc(Br)cc(C(F)F)c1 (stereo partly drawn) [Example 4, (3S)-3-[3-bromo-5-(difluoromethyl)phenyl)-3-(2-(3-hydroxy-5-((5-hydroxy-1,4,5,6-tetrahydropyrimidin-2-yl)amino)benzamido)acetamido]propanoic acid] | 0.4 | 0.4 | 3
O=C(O)C[C@H](NC(=O)CNC(=O)c1cc(O)cc(NC2=NCC(O)CN2)c1)c1cc(Cl)cc(Br)c1 (stereo partly drawn) [Example 6, (3S)-3-[3-bromo-5-chloro-phenyl)-3-(2-(3-hydroxy-5-((5-hydroxy-1,4,5,6-tetrahydropyrimidin-2-yl)amino)benzamido)acetamido]propanoic acid] | 0.4 | 0.5 | 1
O=C(O)C[C@H](NC(=O)CNC(=O)c1cncc(NC2=NCC(O)CN2)c1)c1cc(Br)cc(C(F)(F)F)c1 (stereo partly drawn) [Example 9, (3S)-3-[3-bromo-5-(trifluoromethyl)phenyl]-3-[[2-[[5-[(5-hydroxy-1,4,5,6-tetrahydropyrimidin-2-yl)amino]pyridine-3-carbonyl]amino]acetyl]amino]propanoic acid] | 0.3 | 0.3 | 3
O=C(O)C[C@H](NC(=O)CNC(=O)c1cncc(NC2=NCC(O)CN2)c1)c1cc(Cl)cc(Br)c1 (stereo partly drawn) [Example 8, (3S)-3-(3-bromo-5-chloro-phenyl)-3-[[2-[[5-[(5-hydroxy-1,4,5,6-tetrahydropyrimidin-2-yl)amino]pyridine-3-carbonyl]amino]acetyl]amino]propanoic acid] | 0.4 | 0.4 | 4
O=C(O)C[C@H](NC(=O)CNC(=O)c1cc(O)cc(NC2=NCC(O)CN2)c1)c1cc(Cl)cc(C(F)(F)F)c1 (stereo partly drawn) [Example 5, (3S)-3-[3-chloro-5-(trifluoromethyl)phenyl)-3-(2-(3-hydroxy-5-((5-hydroxy-1,4,5,6-tetrahydropyrimidin-2-yl)amino)benzamido)acetamido]propanoic acid] | 0.5 | 0.6 | 3
O=C(O)C[C@H](NC(=O)CNC(=O)c1cc(O)cc(NC2=NCC(O)CN2)c1)c1cc(C(F)(F)F)cc(C(F)(F)F)c1 (stereo partly drawn) [Example 10, (3S)-3-[3,5-bis(trifluoromethyl)phenyl)-3-(2-(3-hydroxy-5-((5-hydroxy-1,4,5,6-tetrahydropyrimidin-2-yl)amino)benzamido)acetamido]propanoic acid] | 0.3 ± 0.1 | 0.3 ± 0.1 | 4
